For this assay, the system named is male BKS.Cg-m+/+Leprdb mice. The assay is described as follows: Buccal administration to diabetic mice: fasting plasma triglycerides (Example 3). It counts as in vivo. The text has this: The following example, tested the effects of buccal administration of 16α-fluoro-5-andorsten-17-one (hereinafter “drug”).
Eight-week-old male BKS.Cg-m^+/+Lepr^db mice were obtained from Jackson Laboratories. The mice were initially housed five per cage on Alphacel bedding with ad libitum access to Purina 5015 chow and acidified water. The mice wee housed in the Central Animal Facility (6th Floor, Pharmacy building) with twelve hours of alternating light and darkness.
Five days later, the chow was removed from the mice at approximately 3:30 p.m. This was done so that a fasting plasma glucose level could be obtained on the next day. The next day, a pretreatment plasma glucose determination was made. The mice were lightly anesthetized with Isoflurane and were bled form the orbital sinus (˜400 μL of blood was taken). The blood was obtained between 10:00 a.m. and noon. Blood was kept on ice until analysis. After the blood for the glucose measurement was taken out, the remaining blood was centrifuged at 3000×g for 15 minutes. The plasma was removed and frozen for use in determining plasma triglyceride levels.
Plasma triglyceride levels were determined with a Sigma kit (334-UV). The determination is based on the enzymatic hydrolysis of triglycerides to glycerol and free fatty acids by lipase. Glycerol was subsequently phosphorylated by ATP to produce glycerol-I-phosphate and ADP. ATP was regenerated by a pyruvate kinase-catalyzed reaction between ADP […] with simultaneous oxidation of equimolar amounts of NADH in the presence of lactate dehydrogenase. NADH absorbs at 340 nm, thus the decrease in absorbance, measured at this wavelength, is directly proportional to the triglyceride concentration in this sample.
Triglyceride Reagent A (containing ATP, lactate dehydrogenase, lipase, NADH, phosphoenol pyruvate, pyruvate kinase) and Triglyceride Reagent B were reconstituted with 10 mL and 2 mL of distilled water respectively. The Sample Reagent was prepared by adding 0.25 mL of Triglyceride reagent B to 10 mL to Triglyceride Reagent A. Blank, standard (50, 100 and 200 mg/dL) and sample tubes were prepared. One mL of Sample Reagent was added to all tubes. To the Blank tube, 20 μL of distilled water was added. For each Sample tube, 20 μL of plasma was added to the tube. All tubes were incubated at room temperature for 10 minutes. The tubes were read against a Reference containing distilled water. Triglyceride concentration in the samples were calculated by subtracting the absorbance of the Sample form the absorbance of the Blank and using the following formula: […]
One week after obtaining the mice, the mice were distributed into either groups of 6 mice (Control, buccal and 5 mg/kg drug buccal), or 7 mice (10 mg/kg drug buccal). The mice were weighed.
The buccally administered groups were treated with a suspension of drug, 16α-5-androsten-17-one obtained from Eminent Services Corp. The suspension consisted of 100 mg/mL of micronized fluasterone (16α-fluoro-5-androsten-17-one) in 0.9% saline plus 2% Tween 80 and 0.4% carboxymethyl cellulose. The mice were lightly anesthetized with isoflurane and then injected i.m. with 0.05 mL of a solution of ketamine (50 mg/kg), xylazine (10 mg.kg) and atropine (0.1 mg/kg) injected near tail). Approximately 10 minutes post injection, while the animals were anesthetized, the mice were placed on their backs and were treated with one-half of the dose of drug necessary in each buccal area. The mice remained anesthetized and on their backs for approximately 30 minutes post-treatment. The 5 mg/kg drug group was treated with 2.04 μL of suspension (1.02 μL per buccal area) and the 10 mg/kg drug group was treated with 4.2 μL(2.1 μL per buccal area) while the Control Buccal group received 4.2 μL (2.1 μL per buccal area) for the duration of the experiment. The cages of the mice were placed on heating pads on a low temperature to prevent loss of animals due to hypothermia during anesthesia. […]

Values joined by “and” are separate entries in the source; they are usually repeats but may differ in a detail not shown here. Equal values may be shown once.

On to `C[C@]12CCCCC1=CC[C@@H]1[C@@H]2CC[C@]2(C)C(=O)[C@H](F)C[C@@H]12` [fluasterone, 16α-fluoro-5-androsten-17-one], for which the Plasma triglycerides (5 mg/kg buccal group, pre-treatment, group mean) was 138.4 ± 44.6 mg/dL; the Plasma triglycerides (5 mg/kg buccal group, pre-treatment, individual mice, listed as drug) is 116.8 mg/dL and 222.8 mg/dL and 120.6 mg/dL and 110.7 mg/dL and 153.8 mg/dL and 105.9 mg/dL; the Plasma triglycerides (5 mg/kg buccal, after 6 days of treatment, group mean, p < 0.01 vs. control buccal) turned out to be 110.6 ± 28.0 mg/dL; the Plasma triglycerides (5 mg/kg buccal, after 6 days of treatment, individual mice, listed as drug) is 77.2 mg/dL and 106.0 mg/dL and 87.3 mg/dL and 414.0 mg/dL and 146.6 mg/dL and 105.4 mg/dL; the Plasma triglycerides (5 mg/kg buccal, after 13 days of treatment, group mean, p < 0.0005 vs. Control buccal) worked out at 82.0 ± 12.3 mg/dL; the Plasma triglycerides (5 mg/kg buccal, after 13 days of treatment, individual mice, listed as drug) was 97.8 mg/dL and 89.3 mg/dL and 65.3 mg/dL and 79.1 mg/dL and 78.3 mg/dL. Further, the Plasma triglycerides runs as follows: (10 mg/kg buccal group, pre-treatment, group mean) 118.7 ± 38.1 mg/dL; (10 mg/kg buccal group, pre-treatment, individual mice, listed as drug) 97.1 mg/dl and 102.1 mg/dl (2×) and 89.4 mg/dl and 184.4 mg/dl and 93.7 mg/dl and 162.1 mg/dl; (10 mg/kg buccal, after 6 days of treatment, group mean, p < 0.01 vs. Control buccal) 96.5 ± 32.4 mg/dL; (10 mg/kg buccal, after 6 days of treatment, individual mice, listed as drug) 108.7 mg/dL and 83.5 mg/dL and 96.8 mg/dL and 61.2 mg/dL and 104.6 mg/dL and 64.3 mg/dL and 156.7 mg/dL; (10 mg/kg buccal, after 13 days of treatment, group mean, P < 0.001 vs. Control buccal) 104.0 ± 16.6 mg/dL; (10 mg/kg buccal, after 13 days of treatment, individual mice, listed as drug) 102.0 mg/dL and 83.5 mg/dL and 93.6 mg/dL and 133.5 mg/dL and 118.1 mg/dL and 97.8 mg/dL and 99.2 mg/dL.
